# Patent US6528093B1, “Sustained-release preparation” (Takeda Chemical Industries, Ltd., priority 1992, dated 2003)
# Assay: Dissolution of peptide acetate in a dichloromethane solution of lactic acid-glycolic acid copolymer
# Format: physicochemical
# Conditions: 8.0 g dichloromethane
smiles,measurement,setting,value
CCNC(=O)[C@@H]1CCCN1C(=O)[C@H](CCCNC(=N)N)NC(=O)[C@H](CC(C)C)NC(=O)[C@@H](CC(C)C)NC(=O)[C@H](Cc1ccc(O)cc1)NC(=O)[C@H](CO)NC(=O)[C@H](Cc1c[nH]c2ccccc12)NC(=O)[C@H](Cc1c[nH]cn1)NC(=O)[C@@H]1CCC(=O)N1 [Leuprorelin acetate],dissolution in copolymer/dichloromethane solution,"400 mg in 3.6 g lactic acid/glycolic acid=75/25 copolymer of Example 12 (GPC Mw 10,000, end-group Mn 4,300)",clear homogeneous solution
same,dissolution in copolymer/dichloromethane solution,"400 mg in 3.6 g lactic acid/glycolic acid=75/25 copolymer, GPC Mw 18,000, end-group Mn 30,000 (RG752-15057)",could not be successfully dissolved
